Experimental data from US12404239B2, “Modulators of BCL6 as ligand directed degraders” (Celgene Corporation, priority 2022, dated 2025).

Target: T1, BCL6 (Homo sapiens, UniProt P41182)
T1 construct: HiBiT-tag knocked into endogenous BCL6 locus using CRISPR; endogenous in cells; host or cells: DHL-4_BCL6_HiBiT cells (CRISPR knock-in)
Assay: BCL6_HiBiT degradation assay (2 h)
Type: cell-based
Settings: DHL-4_BCL6_HiBiT cells, read-out: YCon (% remaining maximal effect)
Procedure: A DHL-4 cell line with HiBiT-tag knocked into endogenous BCL6 locus using CRISPR was generated. The DHL-4_BCL6_HiBiT cells were dispensed into 384-well plates (Corning no. 3570) that were pre-spotted with compounds. Compounds were dispensed by an acoustic dispenser (ATS acoustic transfer system from EDC Biosystems) into a 384-well plate in a 10-point dose response curve using 3-fold dilutions starting at 1-10 μM and going down to […]. 25 μL of media (RPMI-1640+10% heat inactivated FBS+1×Pen/Strep) containing 2500 of DHL-4 was dispensed per well. Assay plates were incubated at 37° C. with 5% CO2 for 2 hours. After incubation, 25 μL of the Nano-Glo HiBiT lytic detection working solution (Promega, catalogue no. N3040, Madison, WI) was added to each well and incubated at room temperature for 15-30 min, protected from light. After 30 min, luminescence was read on an Envision or PHERAstar luminescence reader. To determine the EC50 value (the half-maximum effective concentration) and the level of the gradation (Yconstant) of a BCL6 degrader, luminescent signal normalized by DMSO control (Y) and compound concentration (x) was fitted using a four-parameter dose-response model (Y=(A+((B−A)/1+((C/x)^D) in Dotmatics. Fitted value C is the degradation EC50 and the minimum value A is the Y constant.
The degradation of BCL6 at 2 h in DHL-4 results are shown in Table 5, where EC50 is the half maximal effect and Ycon is the % remaining maximal effect.

Percent BCL6 remaining at maximal degradation (Ycon)	Structure (SMILES)
< 20%	CN1C(=O)Cc2cc(Nc3nc(N(C)[C@@H]4CCN(c5ccc6c(C7CCC(=O)NC7=O)nn(C)c6c5)C(=O)C4)ncc3Cl)ccc21 (single isomer, unassigned) [Example 129]
> 60%	C[C@H]1C(=O)N(c2ccc3c(C4CCC(=O)NC4=O)nn(C)c3c2)CC[C@@H]1N(C)c1ncc(Cl)c(Nc2ccc3c(c2)CC(=O)N3C)n1 (single isomer, unassigned) [Example 130]
< 20%	C[C@@H]1C(=O)N(c2ccc3c(C4CCC(=O)NC4=O)nn(C)c3c2)CC[C@H]1N(C)c1ncc(Cl)c(Nc2ccc3c(c2)CC(=O)N3C)n1 (single isomer, unassigned) [Example 131]
> 60%	CN1C(=O)Cc2cc(Nc3nc(N4CC[C@@H](Nc5ccc6c(C7CCC(=O)NC7=O)nn(C)c6c5)[C@@H](C(F)(F)F)C4)ncc3Cl)ccc21 (single isomer, unassigned) [Example 148]
20 to 60%	CN1C(=O)Cc2cc(Nc3nc(N4CCC(Nc5ccc6c(C7CCC(=O)NC7=O)nn(C)c6c5)CC45CCC5)ncc3Cl)ccc21 (centres unmarked) [Example 1, 3-(6-((5-(5-chloro-4-((1-methyl-2-oxoindolin-5-yl)amino)pyrimidin-2-yl)-5-azaspiro[3.5]nonan-8-yl)amino)-1-methyl-1H-indazol-3-yl)piperidine-2,6-dione]
< 20%	CN1C(=O)Cc2cc(Nc3nc(N(C)C4CCN(c5ccc6c(C7CCC(=O)NC7=O)nn(C)c6c5)C5(CCC5)C4)ncc3Cl)ccc21 (centres unmarked) [Example 2, 3-(6-(8-((5-chloro-4-((1-methyl-2-oxoindolin-5-yl)amino)pyrimidin-2-yl)(methyl)amino)-5-azaspiro[3.5]nonan-5-yl)-1-methyl-1H-indazol-3-yl)piperidine-2,6-dione]
> 60%	CN1C(=O)Cc2cc(Nc3nc(N(C)[C@H]4CC[C@H](Nc5ccc6c(C7CCC(=O)NC7=O)nn(C)c6c5)CC4)ncc3Cl)ccc21 (stereo partly drawn) [Example 3, 3-(6-(((trans)-4-((5-chloro-4-((1-methyl-2-oxoindolin-5-yl)amino)pyrimidin-2-yl)(methyl)amino)cyclohexyl)amino)-1-methyl-1H-indazol-3-yl)piperidine-2,6-dione]
< 20%	C[C@@H]1C[C@H](N(C)c2ncc(Cl)c(Nc3ccc4c(c3)CC(=O)N4C)n2)CCN1c1ccc2c(C3CCC(=O)NC3=O)nn(C)c2c1 (stereo partly drawn) [Example 4, 3-(6-((2R,4R)-4-((5-chloro-4-((1-methyl-2-oxoindolin-5-yl)amino)pyrimidin-2-yl)(methyl)amino)-2-methylpiperidin-1-yl)-1-methyl-1H-indazol-3-yl)piperidine-2,6-dione]
> 60%	CC1CN(c2ncc(Cl)c(Nc3ccc4c(c3)CC(=O)N4C)n2)CC(=O)N1c1ccc2c(C3CCC(=O)NC3=O)nn(C)c2c1 (centres unmarked) [Example 5, 3-(6-(4-(5-chloro-4-((1-methyl-2-oxoindolin-5-yl)amino)pyrimidin-2-yl)-2-methyl-6-oxopiperazin-1-yl)-1-methyl-1H-indazol-3-yl)piperidine-2,6-dione]
> 60%	CN1C(=O)Cc2cc(Nc3nc(N(C)C4CCN(c5ccc6c(C7CCC(=O)NC7=O)nn(C)c6c5)CC4)ncc3Cl)ccc21 (centres unmarked) [Example 6, 3-(6-(4-((5-Chloro-4-((1-methyl-2-oxoindolin-5-yl)amino)pyrimidin-2-yl)(methyl)amino)piperidin-1-yl)-1-methyl-1H-indazol-3-yl)piperidine-2,6-dione]
> 60%	CN1C(=O)Cc2cc(Nc3nc(N4CCC(N(C)c5ccc6c(C7CCC(=O)NC7=O)nn(C)c6c5)CC4)ncc3Cl)ccc21 (centres unmarked) [Example 7, 3-(6-((1-(5-chloro-4-((1-methyl-2-oxoindolin-5-yl)amino)pyrimidin-2-yl)piperidin-4-yl)(methyl)amino)-1-methyl-1H-indazol-3-yl)piperidine-2,6-dione]
